Laboratory results: patent US7098219B2, “Inhibitors of cellular efflux pumps of microbes” (Wockhart Limited, priority 2000, dated 2006)

System: Staphylococcus aureus 1199 B NorA+
Assay type: cell-based
Conditions: combination with ciprofloxacin, broth microdilution checkerboard, 35° C. 20 hours; FIC index ≦0.5 synergistic, 0.5–2.0 additive, >2.0 antagonistic
Text: Testing method for inhibition of the efflux pump of Staphylococcus aureus 1199B NorA^+
[…]. Victor Lorian, Md., Fourth edition 1996, pp 333–338).
In short, the assay involves broth microdilution method performed as recommended by the National Committee for Clinical Laboratory Standards (NCCLS) 1997 (Methods for Dilution of Antimicrobial Susceptibility Tests for Bacteria that Grow Aerobically, Fourth edition; Approved Standard, NCCLS document M7-A4, vol. 17, No. 2). The test organism used for the assay is Staphylococcus aureus 1199 B NorA^+.
[…]. Stock solutions of the efflux pump inhibitors tested are prepared in dimethyl sulfoxide (DMSO) at a final concentration of 5 mg/ml. Stock solutions are further diluted in Mueller Hinton Broth as per the need of the assay. Ciprofloxacin is dissolved in water.
The checkerboard assay is performed in microtiter plates. […] The efflux pump inhibitor is diluted in the Y-axis, each row containing an equal concentration of efflux pump inhibitor. The result of these manipulations is that each well of the microtiter plate contains a unique combination of concentrations of the two agents. Bacterial inoculum is added at 5×10^5 CFU/ml. Microtiter plates are incubated at 35° C. for 20 hours. Reading is done by visibly noting turbidity and confirmed using a microtiter plate reader (Molecular Devices). The FIC index is calculated as
(A) is the concentration of the experimental efflux pump inhibitor in the well that is the lowest inhibitory concentration in the Y-axis. (MICA) is the MIC of Staphylococcus aureus to experimental efflux pump inhibitor alone. FICA is the fractional inhibitory concentration of an experimental efflux pump inhibitor. […] (Antimicrobial Combination In Antibiotics in Laboratory Medicine, Ed. Victor Lorian, Md., Fourth edition 1996, pp 333–338).

Row | Molecule | FIC INDEX
1 | CC1CC(C)CN(c2cc3c(cc2F)c(=O)c(C(=O)O)cn3-c2ccc(F)cc2F)C1 (centres unmarked) [Example 45 (NorA), 1-(2′,4′-Difluorophenyl)-6-fluoro-1,4-dihydro-7-(3′,5′-dimethylpiperidin-1-yl)-4-oxo-quinoline-3-carboxylic acid] | 0.192
2 | CC1CN(c2cc3c(cc2F)c(=O)c(C(=O)O)cn3C2CC2)CC(C)N1C (centres unmarked) [Example 15 (NorA), 1-Cyclopropyl-6-fluoro-1,4-dihydro-7-(3′,4′,5′-trimethylpiperazin-1-yl)-4-oxo-quinoline-3-carboxylic acid] | 0.314
3 | C[C@H](NC(=O)OC(C)(C)C)C(=O)N[C@@H](C)C(=O)NC1CCN(c2c(F)c(N)c3c(=O)c(C(=O)O)cn(C4CC4)c3c2F)CC1 [Example 29 (NorA), 5-Amino-1-cyclopropyl-6,8-difluoro-1,4-dihydro-7-{4′-(-t-butoxycarbonylamino-L-Ala-L-Ala)aminopiperidin-1-yl}-4-oxo-quinoline-3-carboxylic acid] | 0.320
4 | COc1c(N2CC(C)C(O)C(C)C2)c(F)cc2c(=O)c(C(=O)O)cn(C3CC3)c12 (centres unmarked) [Example 22 (NorA), 1-Cyclopropyl-6-fluoro-8-methoxy-1,4-dihydro-7-(4′-hydroxy-3′,5′-dimethylpiperidin-1-yl)-4-oxo-quinoline-3-carboxylic acid] | 0.370
5 | CCC(=O)OC1CCN(c2c(F)c(N)c3c(=O)c(C(=O)O)cn(C4CC4)c3c2F)CC1 [Example 30 (NorA), 5-Amino-1-cyclopropyl-6,8-difluoro-1,4-dihydro-7-(4′-propionoxypiperidin-1-yl)-4-oxo-quinoline-3-carboxylic acid] | 0.314
6 | Nc1c(F)c(N2CCC(N)C2)c(F)c2c1c(=O)c(C(=O)O)cn2-c1ccc(C(F)(F)F)cc1 (centres unmarked) [Example 43 (NorA), 5-Amino-1-(4′-trifluoromethylphenyl)-6,8-difluoro-1,4-dihydro-7-(3′-aminopyrrolidin-1-yl)-4-oxo-quinoline-3-carboxylic acid] | 0.564
7 | CCOC(=O)COC(=O)c1cn2c3c(c(N4CCC(O)CC4)c(F)cc3c1=O)CC[C@H]2C [Example 57 (NorA), Ethoxy carbonylmethyl (R)-(+)-9-fluoro-6,7-dihydro-8-(4′-hydroxypiperidin-1-yl)-5-methyl-1-oxo-1H,5H-benzo[i,j]quinolizine-2-carboyxlate] | 0.400
8 | (S)-(−)-9-Fluoro-6,7-dihydro-8-(4′-hydroxypiperidin-1-yl)-5-methyl-1-oxo-1H,5H-benzo[i,j]quinolizine-2-carboxylic acid L-aryinine salt [Example 54 (NorA)] | 0.314
9 | Nc1c(F)c(N2CCC(N3CCCC3)CC2)c(F)c2c1c(=O)c(C(=O)O)cn2C1CC1 [Example 32 (NorA), 5-Amino-1-cyclopropyl-6,8-difluoro-1,4-dihydro-7-{4′-(1-pyrrolidinyl)piperidin-1-yl)-4-oxo-quinoline-3-carboxylic acid] | 0.340
10 | CCOC(=O)c1cn([C@@H](C)CCSc2ccccc2)c2c(F)c(N3CCC(O)CC3)c(F)cc2c1=O [Example 38 (NorA), Ethyl 6,8-Difluoro-7-(4-hydroxypiperidin-1-yl)-1-(1-phenylthio-3(S)-but-3-yl)-1,4-dihydro-4-oxo-quinoline-3-carboxylate] | 0.100
11 | COc1c(N2CCC(N(C)C)C(C)C2)c(F)cc2c(=O)c(C(=O)O)cn(C3CC3)c12 (centres unmarked) [19 (NorA), 1-Cyclopropyl-6-fluoro-8-methoxy-1,4-dihydro-7-{4′-(N-dimethylamino)-3′-methylpiperidin-1-yl}-4-oxo-quinoline-3-carboxylic acid] | 0.200
12 | COc1c(N2CCC(O)C(CC(C)C)C2)c(F)cc2c(=O)c(C(=O)O)cn(C3CC3)c12 (centres unmarked) [Example 20 (NorA), 1-Cyclopropyl-6-fluoro-8-methoxy-1,4-dihydro-7-(4′-hydroxy-3′-isobutylpiperidin-1-yl)-4-oxo-quinoline-3-carboxylic acid] | 0.248
13 | CC1CN(c2c(F)c(N)c3c(=O)c(C(=O)O)cn(-c4ccccc4C(F)(F)F)c3c2F)CC(C)N1 (centres unmarked) [Example 42 (NorA), 5-Amino-1-(2′-trifluoromethylphenyl)-6,8-difluoro-1,4-dihydro-7-(3′,5′-dimethylpiperizine-1-yl)-4-oxo-quinoline-3-carboxylic acid] | 0.314
14 | CCCCN(CCCC)C1CCN(c2c(F)c(N)c3c(=O)c(C(=O)O)cn(C4CC4)c3c2F)CC1 [Example 28 (NorA), 5-Amino-1-cyclopropyl-6,8-difluoro-1,4-dihydro-7-{4′-(N-di-n-butylamino)piperidin-1-yl)-4-oxo-quinoline-3-carboxylic acid] | 0.314
15 | C[C@H]1CCc2c(N3CCC(O)CC3)c(F)cc3c(=O)c(C(=O)OC4CCN(C)CC4)cn1c23 [Example 56 (NorA), (S)-(−)-N-methylpiperidino-9-fluoro-6,7-dihydro-8-(4′-hydroxypiperidin-1-yl)-5-methyl-1-oxo-1H,5H-benzo[i,j]quinolizine-2-carboxylic acid] | 0.180
16 | Nc1c(F)c(N2CCC(CNC3CCNCC3)CC2)c(F)c2c1c(=O)c(C(=O)O)cn2C1CC1 [Example 33 (NorA)] | 0.314
17 | Cc1c(F)c(N2CCC(Nc3c(F)c(N)c4c(=O)c(C(=O)O)cn(C5CC5)c4c3F)CC2)cc2c1c(=O)c(C(=O)O)cn2C1CC1 [Bis compound 6, N-1-{7-(1-cyclopropyl-6-fluoro-5-methyl-1,4-dihydro-4-oxo-quinolone-3-carboxylic acid)}-N-4-amino{7-(1-cyclopropyl-6,8-difluoro-5-amino-1,4-dihydro-4-oxo-quinoline-3-carboxylic acid)}-piperidine] | 0.304
18 | Nc1c(F)c(N2CCN(C3CC3)CC2)c(F)c2c1c(=O)c(C(=O)O)cn2C1CC1 [Example 36 (NorA), 5-Amino-1-cyclopropyl-6,8-difluoro-1,4-dihydro-7-(4′-cyclopropylpiperazin-1-yl)-4-oxo-quinoline-3-carboxylic acid] | 0.314
19 | Cc1c(F)c(N2CCC(Nc3nc4c(cc3F)c(=O)c(C(=O)O)cn4-c3ccc(F)cc3F)C2)cc2c1c(=O)c(C(=O)O)cn2C1CC1 (centres unmarked) [Bis compound 5, N-1-{7-(1-cyclopropyl-6-fluoro-5-methyl-1,4-dihydro-4-oxo-quinolone-3-carboxylic acid)}-N-3-amino-{7-(1-(2,4-difluorophenyl)-6-fluoro-1,4-dihydro-4-oxo-1,8-naphthyridine-3-carboxylic acid)}-pyrrolidine] | 0.320
20 | CC(=O)NC1CC(C)N(c2cc3c(cc2F)c(=O)c(C(=O)O)cn3C2CC2)C1 (centres unmarked) [9 (NorA), 1-Cyclopropyl-6-fluoro-1,4-dihydro-7-(3′-acetamido-5′-methylpyrrolidin-1-yl)-4-oxo-quinoline-3-carboxylic acid] | 0.314
21 | CC1(C)CN(c2c(F)c(N)c3c(=O)c(C(=O)O)cn(-c4ccc(F)cc4F)c3c2F)CCN1 [Example 47 (NorA), 5-Amino-1-(2′,4′-difluorophenyl)-6,8-difluoro-1,4-dihydro-7-(3′,3′-dimethylpiperazin-1-yl)-4-oxo-quinoline-3-carboxylic acid] | 0.375
22 | Nc1c(F)c(N2CCOCC2)c(F)c2c1c(=O)c(C(=O)O)cn2-c1ccccc1C(F)(F)F [Example 40 (NorA), 5-Amino-1-(2′-trifluoromethylphenyl)-6,8-difluoro-1,4-dihydro-7-(morpholin-1-yl)-4-oxo-quinoline-3-carboxylic acid] | 0.314
23 | 5-Amino-1-ethyl-6,8-difluoro-1,4-dihydro-7-[(1∝,5∝,6∝)-6′-(N-t-butoxycarbonylamino)-3-azabicyclo[3.1.0]-hex-3-yl}-4-oxo-quinoline-3-carboxylic acid [Example 8 (NorA)] | 0.314
24 | CCn1cc(C(=O)O)c(=O)c2c(N)c(F)c(N3CC(N)CC3C)c(F)c21 (centres unmarked) [5 (NorA), 5-Amino-1-ethyl-6,8-difluoro-1,4-dihydro-7-(3′-amino-5′-methylpyrrolidin-1-yl)-4-oxo-quinoline-3-carboxylic acid] | 0.378
25 | CCOC(=O)c1cn(-c2ccc(F)cc2F)c2nc(N3CCc4c(cnn4-c4ccccc4)C3)c(F)cc2c1=O [Example 52 (NorA), Ethyl 6-fluoro-7-[1-Phenyl-4,5,6,7-tetrahydropyrazolo[4.3-c]pyridin-1-yl]-1-(2,4-difluorophenyl)-4-oxo-1,4-dihydro-1,8-naphthyridine-3-carboxylate] | 0.100
26 | CC(=O)OC1CCN(c2cc3c(cc2F)c(=O)c(C(=O)O)cn3C2CC2)CC1 [Example 11 (NorA), 1-Cyclopropyl-6-fluoro-1,4-dihydro-7-(4′-acetoxypiperidin-1-yl)-4-oxo-quinoline-3-carboxylic acid] | 0.282
